How the values were obtained:
[1] = system: Evi-1
[2] = system: PDE3A promoter; experiment: PDE3A Ins or Del promoter-luciferase constructs transfected into NRVMs; assay type: cell-based, rat; settings: for promoter response: Del construct with deletion of the CREB binding site (CRE) at −1070, NRVMs; for promoter (transcriptional) activity: NRVMs
[3] = system: PDE3A mRNA; experiment: PDE3A mRNA abundance in LVs explanted from end-stage HF patients, by PDE3A promoter Ins/Del genotype; assay type: in vivo, human
[4] = system: Evi-1 transcription factor mRNA; experiment: Evi-1 mRNA expression in explanted left ventricular samples from heart failure patients treated with enoximone; assay type: in vivo, human; settings: explanted LV samples from HF patients treated with enoximone; compared to non-failing, no enoximone

`Nc1ncnc2c1ncn2[C@@H]1O[C@@H]2COP(=O)(O)O[C@H]2[C@H]1O` [cAMP, cyclic AMP] was tested, and the “induction of Evi-1” value [1] was 16 fold.

For `CCCC(=O)Nc1ncnc2c1ncn2[C@@H]1O[C@@H]2COP(=O)(O)O[C@H]2[C@H]1OC(=O)CCC` [dbcAMP], the promoter response [2] was “abolishes the promoter response”.

In the case of `CSc1ccc(C(=O)c2[nH]c(=O)[nH]c2C)cc1` [enoximone], the “PDE3A mRNA abundance” value ([3]; Del carriers (homozygous or heterozygous for PDE3A Del, n=9) treated with enoximone, compared to Del patients not receiving enoximone (n=19), p<0.001) is reported as 2.1±0.3 fold, the PDE3A gene expression ([3]; patients homozygous for the Ins (Ins/Ins) treated with enoximone, p=0.7) is reported as 1.1±0.3 fold and the promoter response [2] is reported as “abolishes the promoter response”. The “mRNA expression of Evi-1” value [4] was “increased”.

With `CC(C)NCC(O)c1ccc(O)c(O)c1` (centres unmarked) [isoproterenol] the “promoter (transcriptional) activity” value ([2]; Del PDE3A promoter-luciferase construct (lacks the 29 nucleotide sequence)) was “increased promoter activity” and the “promoter (transcriptional) activity” value ([2]; Ins PDE3A promoter-luciferase construct (29 nucleotide sequence present)) was “does not go up”.
